Results on four compounds are retold here after patent US8404713B2, “Quinolinone derivatives as PARP inhibitors” (Janssen Pharmaceutica NV, priority 2007, dated 2013).

As usually defined, the melting point is the temperature of the solid-liquid transition.

The subject of data set [1] is ischemia and reperfusion of the heart or skeletal muscle. The settings on record: rabbits, cited from earlier work.
Data set [2] concerns colitis induced by intraluminal trinitrobenzene sulfonic acid. Particulars: rats, colitis by trinitrobenzene sulfonic acid in 50% ethanol; cited from earlier work.
A further data set has as its target T1, TANK-2 enzyme (Homo sapiens, UniProt Q9H2K2).
T1 construct: made in house
T1 sequence (Q9H2K2 1-1166): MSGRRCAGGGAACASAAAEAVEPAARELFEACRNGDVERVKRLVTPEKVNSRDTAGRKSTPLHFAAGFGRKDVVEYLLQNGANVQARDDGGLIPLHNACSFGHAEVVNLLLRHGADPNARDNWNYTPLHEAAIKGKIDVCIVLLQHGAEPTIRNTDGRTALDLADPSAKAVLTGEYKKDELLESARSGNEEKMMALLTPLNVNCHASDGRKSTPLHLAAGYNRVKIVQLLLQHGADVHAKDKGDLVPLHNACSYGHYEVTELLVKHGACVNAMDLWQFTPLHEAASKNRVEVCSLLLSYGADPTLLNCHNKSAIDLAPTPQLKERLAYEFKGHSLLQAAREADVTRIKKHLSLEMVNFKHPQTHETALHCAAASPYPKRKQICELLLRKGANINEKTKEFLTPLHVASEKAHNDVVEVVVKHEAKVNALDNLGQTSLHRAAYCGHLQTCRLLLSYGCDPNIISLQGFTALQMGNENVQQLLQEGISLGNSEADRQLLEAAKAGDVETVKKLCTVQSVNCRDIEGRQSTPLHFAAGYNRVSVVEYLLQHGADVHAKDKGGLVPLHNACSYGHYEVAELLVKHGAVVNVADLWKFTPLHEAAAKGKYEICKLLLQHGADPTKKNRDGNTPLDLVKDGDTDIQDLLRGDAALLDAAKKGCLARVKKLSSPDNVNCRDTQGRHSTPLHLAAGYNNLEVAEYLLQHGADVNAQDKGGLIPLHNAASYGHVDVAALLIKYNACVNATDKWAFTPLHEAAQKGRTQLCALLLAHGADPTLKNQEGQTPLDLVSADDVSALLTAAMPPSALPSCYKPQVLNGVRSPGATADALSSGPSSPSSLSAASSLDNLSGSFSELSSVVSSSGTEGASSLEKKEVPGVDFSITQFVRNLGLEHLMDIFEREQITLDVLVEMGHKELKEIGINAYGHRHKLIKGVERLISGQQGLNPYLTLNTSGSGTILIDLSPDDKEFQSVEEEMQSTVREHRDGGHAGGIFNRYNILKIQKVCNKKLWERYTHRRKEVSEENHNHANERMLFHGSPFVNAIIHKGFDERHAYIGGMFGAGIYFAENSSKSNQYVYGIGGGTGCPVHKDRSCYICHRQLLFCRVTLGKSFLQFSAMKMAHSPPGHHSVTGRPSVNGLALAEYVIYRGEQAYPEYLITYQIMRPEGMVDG
As to the kind of experiment: In vitro scintillation proximity assay (SPA) for TANK-2 inhibitory activity. In kind it is biochemical. The settings on record: auto-poly(ADP-ribosyl)ation, Ni flash plates; 96-well results if available, otherwise 384-well; tested between 10^-5 M and 3x10^-8 M; read-out: in vitro SPA assay TANK-2 pIC50 (converted).

Another data set addresses T2, Human PARP-1 enzyme (Homo sapiens, UniProt P09874).
T2 construct: purchased Trevigen
The data set is described as follows: In vitro scintillation proximity assay (SPA) for PARP-1 inhibitory activity. Particulars: nicked DNA activated PARP-1, [3H]-NAD+, biotinylated histones; tested between 10^-5 M and 3x10^-9 M; read-out: in vitro SPA assay PARP-1 pIC50 (converted). Format: biochemical. (SPA uses beads or plates that emit light when radiolabelled molecules are held near them.)

SMILES strings stand for the structures.

T2 sequence (P09874 whole entry): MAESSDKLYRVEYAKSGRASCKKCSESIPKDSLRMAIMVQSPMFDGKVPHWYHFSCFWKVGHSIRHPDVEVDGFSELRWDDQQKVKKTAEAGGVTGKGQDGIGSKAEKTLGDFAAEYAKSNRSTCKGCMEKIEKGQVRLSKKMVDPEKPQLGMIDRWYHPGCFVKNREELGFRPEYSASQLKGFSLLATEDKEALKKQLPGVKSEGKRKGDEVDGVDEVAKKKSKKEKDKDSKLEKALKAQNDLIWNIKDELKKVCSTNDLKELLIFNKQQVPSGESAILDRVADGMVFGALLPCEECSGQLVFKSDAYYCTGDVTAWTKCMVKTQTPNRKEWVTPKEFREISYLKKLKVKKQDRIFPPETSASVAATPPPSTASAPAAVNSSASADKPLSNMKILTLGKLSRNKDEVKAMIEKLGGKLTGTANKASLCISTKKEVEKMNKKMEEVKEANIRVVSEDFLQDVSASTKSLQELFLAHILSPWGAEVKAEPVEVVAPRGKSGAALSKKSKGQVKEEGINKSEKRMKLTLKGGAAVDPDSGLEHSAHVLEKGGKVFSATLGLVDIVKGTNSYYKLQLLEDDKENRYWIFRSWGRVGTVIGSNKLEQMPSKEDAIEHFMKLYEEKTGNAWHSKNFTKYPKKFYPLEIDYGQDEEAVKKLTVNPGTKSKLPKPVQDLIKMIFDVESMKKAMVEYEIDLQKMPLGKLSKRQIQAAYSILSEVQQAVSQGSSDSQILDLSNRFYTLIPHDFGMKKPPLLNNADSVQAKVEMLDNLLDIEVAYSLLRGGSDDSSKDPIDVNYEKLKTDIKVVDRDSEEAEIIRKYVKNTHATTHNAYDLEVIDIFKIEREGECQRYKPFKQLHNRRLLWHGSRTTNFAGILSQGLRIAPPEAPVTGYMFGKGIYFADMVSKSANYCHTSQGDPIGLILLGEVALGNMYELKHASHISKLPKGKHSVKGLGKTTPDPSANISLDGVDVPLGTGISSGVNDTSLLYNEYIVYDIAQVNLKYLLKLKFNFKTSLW

Consider `Oc1cccc2c(O)nccc12` [1,5-dihydroxyisoquinoline], for which the “reduction in infarct size” value in data set [1] (single injection 1 mg/kg) was 38-48%.

For the compound `NC(=O)c1cccc(N)c1` [3-amino-benzamide], the “effect on inflammatory response, morphology and energetic status of the distal colon” value in data set [2] is “reduced the inflammatory response and restored the morphology and the energetic status of the distal colon”. In addition, the “reduction in infarct size in the heart” value in data set [1] (single injection 10 mg/kg, one minute before occlusion or one minute before reperfusion) is listed as 32-42%.

On to `CCc1cc2c(OC)cc(CN3CCN(c4ccccc4OC)CC3)cc2[nH]c1=O` [Compound 64], for which the melting point is 80 °C. Moreover, the IC50 at TANK-2 enzyme was 4470 nM. The IC50 on Human PARP-1 enzyme is 3.02 nM.

In turn, `Cc1cc2ccc(C(C)N3CCCC3)cc2[nH]c1=O` (stereo not drawn) [Compound 68] showed a melting point of 133 °C. Also, the IC50 at TANK-2 enzyme is 2140 nM. The IC50 at Human PARP-1 enzyme was 0.759 nM.
